The values below come from patent US7786143B2, “Thiazolyl piperidine derivatives” (Hoffman-La Roche Inc., priority 2005, dated 2010).

For orientation: Ki means a dissociation constant, usually derived from enzyme kinetics or from competition with a known ligand.

The target in this assay is T1, histamine 3 receptor (H3R) (Homo sapiens, UniProt Q9Y5N1).
T1 construct: expressed in transfected cells; host or cells: CHO cells (HR3-CHO)
The experiment in a line: Binding assay with 3H-(R)α-methylhistamine, competition binding on membranes of the human HR3-CHO cell line. The conditions noted are these: competition with 3H(R)α-methylhistamine (1 nM), Ki calculated from IC50 by Cheng-Prusoff. The method, then: Binding Assay with ^3H-(R)α-methylhistamine
Saturation binding experiments were performed using HR3-CHO membranes prepared as described in Takahashi, K, Tokita, S., Kotani, H. (2003) J. Pharmacol. Exp. Therapeutics 307, 213-218.
An appropriate amount of membrane (60 to 80 μg protein/well) was incubated with increasing concentrations of ^3H(R)α-Methylhistamine di-hydrochloride (0.10 to 10 nM). Non specific binding was determined using a 200 fold excess of cold (R)α-Methylhistamine dihydrobromide (500 nM final concentration). The incubation was carried out at room temperature (in deep-well plates shaking for three hours). The final volume in each well was 250 μl. The incubation was followed by rapid filtration on GF/B filters (pre-soaked with 100 μl of 0.5% PEI in Tris 50 mM shaking at 200 rpm for two hours). The filtration was made using a cell-harvester and the filter plates were then washed five times with ice cold washing buffer containing 0.5 M NaCl. After harvesting, the plates were dried at 55° C. for 60 min, then we added scintillation fluid (Microscint 40, 40 microl in each well) and the amount of radioactivity on the filter was determined in Packard top-counter after shaking the plates for two hours at 200 rpm at room temperature.
Binding Buffer: 50 mM Tris-HCl pH 7.4 and 5 mM MgCl2×6H2O pH 7.4. Washing Buffer: 50 mM Tris-HCl pH 7.4 and 5 mM MgCl2×6H2O and 0.5 M NaCl pH 7.4.
Indirect measurement of affinity of H3R inverse agonists: twelve increasing concentrations (ranging from 10 μM to 0.3 nM) of the selected compounds were always tested in competition binding experiments using membrane of the human HR3-CHO cell line. […]
All compounds were tested at a single concentration in duplicates. […] Ki's were calculated from IC50 based on Cheng-Prusoff equation (Cheng, Y, Prusoff, W H (1973) Biochem Pharmacol 22, 3099-3108).

T1 sequence (Q9Y5N1 whole entry): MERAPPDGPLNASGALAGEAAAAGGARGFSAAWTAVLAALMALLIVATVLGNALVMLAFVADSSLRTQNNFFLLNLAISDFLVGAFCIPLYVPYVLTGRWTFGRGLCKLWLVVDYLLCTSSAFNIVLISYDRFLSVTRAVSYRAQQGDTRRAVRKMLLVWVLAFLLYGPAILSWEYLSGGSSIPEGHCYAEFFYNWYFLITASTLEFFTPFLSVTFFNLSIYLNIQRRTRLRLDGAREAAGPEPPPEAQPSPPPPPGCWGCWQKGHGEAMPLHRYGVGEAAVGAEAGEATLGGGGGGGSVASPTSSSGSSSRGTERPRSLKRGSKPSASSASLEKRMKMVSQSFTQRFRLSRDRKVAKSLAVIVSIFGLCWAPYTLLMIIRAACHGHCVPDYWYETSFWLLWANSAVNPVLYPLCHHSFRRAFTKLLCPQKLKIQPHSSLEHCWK

In the case of `COc1ccc(-c2csc(C3CCN(C(C)C)CC3)n2)cc1` [Example 9, 1-isopropyl-4-[4-(4-methoxy-phenyl)-thiazol-2-yl]-piperidine], the inhibitory constant (Ki) is 28 nM.

Take `c1cc2c(cc1-c1csc(C3CCN(C4CCCC4)CC3)n1)OCCO2` [Example 52, 1-cyclopentyl-4-[4-(2,3-dihydro-benzo[1,4]dioxin-6-yl)-thiazol-2-yl]-piperidine]: the inhibitory constant (Ki) is 123 nM.

In the case of `CC1CCCCN1C(=O)c1csc(C2CCN(C3CCCC3)CC2)n1` (stereo not drawn) [Example 68, [2-(1-cyclopentyl-piperidin-4-yl)-thiazol-4-yl]-(2-methyl-piperidin-1-yl)-methanone], the inhibitory constant (Ki) was 156 nM.
